ChEMBL document CHEMBL1201862, “PubChem BioAssay data set” (2004)
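Interpolation was linear, between the two tested concentrations surrounding the appropriate level; five concentrations were tested over 48 hours in 96-well plates. Here, GI50 denotes the concentration required for 50% inhibition of growth.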 The source made the active and inactive calls. Cut-off read from the data, not from the text of the source: active = GI50 up to about 1.1 µM and inactive = higher.

What was measured:
Assay in all cases: growth of human tumour cells (NCI), 48 h
[1] = system: XF498
[2] = system: DLD-1
[3] = system: KM-20L2
[4] = system: SNB-78
[5] = system: M19-MEL
[6] = system: LXFL 529
[7] = system: DMS-273
[8] = system: HOP-18
[9] = system: RXF 631

SMILES	GI50 [1]	GI50 [2]	GI50 [3]	GI50 [4]	GI50 [5]	GI50 [6]	GI50 [7]	GI50 [8]	GI50 [9]
Cc1cccc(NC2=NC(=O)C(CC(=O)Nc3cccc(C)c3C)S2)c1 (stereo not given)	> 100 µM (inactive)	> 100 µM (inactive)	> 100 µM (inactive)	> 100 µM (inactive)	> 100 µM (inactive)	> 100 µM (inactive)			
CCC(=O)CCC1=Nc2nnc(CCCCc3nnc4n3C(=O)C(CCC(=O)CC)=N4)n2C1=O	> 100 µM (inactive)	> 100 µM (inactive)	> 100 µM (inactive)		> 100 µM (inactive)	> 100 µM (inactive)	> 100 µM (inactive)		
CC#COS(=O)(=O)c1ccc(C)cc1		30.8 µM (inactive)	46.5 µM (inactive)	63.5 µM (inactive)	70.1 µM (inactive)	41 µM (inactive)			
C#CC[N+](CCO)(CCO)CCCCCCCCCCCCCCCCCC	4.43 µM (inactive)	9.25 µM (inactive)	7.1 µM (inactive)	6.53 µM (inactive)	9.16 µM (inactive)		4.9 µM (inactive)	9.33 µM (inactive)	
COc1cc2ccc(/C(C)=N/OC(C)=O)cc2cc1OC	83.6 µM (inactive)		> 100 µM (inactive)	92.9 µM (inactive)	> 100 µM (inactive)	95.9 µM (inactive)	73.8 µM (inactive)	58.2 µM (inactive)	97.7 µM (inactive)
CC(C)(C)OC(=O)NC1CCC(C(C)(C)C)CC1 (stereo not given)	> 52.2 µM (inactive)	> 100 µM (inactive)	37.9 µM (inactive)	> 100 µM (inactive)	31.3 µM (inactive)		> 51.2 µM (inactive)	> 82.8 µM (inactive)	
C[N+](C)=c1nc(N2CCOCC2)ss1	> 100 µM (inactive)			> 100 µM (inactive)		> 100 µM (inactive)	> 100 µM (inactive)		0.337 µM (active)
CCOc1ccc2nc(NC(=O)C(=O)C(C(=O)c3ccccc3F)C3OC(=O)c4ccccc43)sc2c1 (stereo not given)	24.1 µM (inactive)	25.3 µM (inactive)	27.9 µM (inactive)	17.5 µM (inactive)	12.1 µM (inactive)	19.7 µM (inactive)	19.1 µM (inactive)		14.5 µM (inactive)
[O-][S+]1[C@H](c2ccccc2)c2c(-c3ccccc3)sc(-c3ccccc3)c2[C@@H]1c1ccccc1 (stereo not given in full)		33 µM (inactive)	5.79 µM (inactive)		> 100 µM (inactive)	> 100 µM (inactive)	> 100 µM (inactive)	11.4 µM (inactive)	39 µM (inactive)
CCOC(=O)C1=C(O)C(=O)c2ccoc2C1=O	> 100 µM (inactive)		> 100 µM (inactive)	> 100 µM (inactive)	> 100 µM (inactive)		> 100 µM (inactive)	> 100 µM (inactive)	
O=C1C2=C(c3ccccc31)C(c1ccccc1Cl)N1C(=O)CSC1=N2 (stereo not given)	64 µM (inactive)	> 100 µM (inactive)	> 100 µM (inactive)		> 100 µM (inactive)	74.3 µM (inactive)	> 100 µM (inactive)		> 100 µM (inactive)
O=C(CC/C(CC(=O)c1ccc(Cl)cc1)=N/O)Nc1ccc(Cl)c(Cl)c1	> 100 µM (inactive)	> 100 µM (inactive)	36.2 µM (inactive)	> 100 µM (inactive)	> 100 µM (inactive)	80.7 µM (inactive)	> 100 µM (inactive)	> 100 µM (inactive)	> 100 µM (inactive)
COc1ccc(/C=C2\CCC(CN3CCOCC3)C2=O)cc1 (stereo not given)	3.56 µM (inactive)	2.79 µM (inactive)	6.3 µM (inactive)	4.86 µM (inactive)	4.31 µM (inactive)	1.59 µM (inactive)		5.78 µM (inactive)	6.52 µM (inactive)
Cc1ccc(S(=O)(=O)C2=c3nc4ccccc4cc3=C3C(=O)c4ccccc4C(=O)C32)cc1 (stereo not given)	> 100 µM (inactive)	> 100 µM (inactive)	> 100 µM (inactive)		> 100 µM (inactive)	> 100 µM (inactive)	> 100 µM (inactive)		
C[N+](C)(C)CC(=O)N/N=c1\cc(C(=O)Nc2ccc(N=O)cc2C#N)oc2cc(O)ccc12	> 100 µM (inactive)	> 100 µM (inactive)	> 100 µM (inactive)	> 100 µM (inactive)	> 100 µM (inactive)	> 100 µM (inactive)	> 100 µM (inactive)	> 100 µM (inactive)	> 100 µM (inactive)
Nc1nc(N)c(CCCCc2ccccc2)c(/C=C/c2ccc([N+](=O)[O-])cc2)n1	1.84 µM (inactive)	2.39 µM (inactive)	2.49 µM (inactive)	2.59 µM (inactive)	3.36 µM (inactive)	3.21 µM (inactive)			
CC(=O)OCC1OC(n2c(=S)n(-c3ccccc3)c(=O)c3cc(Br)ccc32)C(OC(C)=O)C1OC(C)=O (stereo not given)	71.8 µM (inactive)	> 100 µM (inactive)	> 100 µM (inactive)	> 100 µM (inactive)	> 100 µM (inactive)	65.3 µM (inactive)	> 100 µM (inactive)	> 100 µM (inactive)	
N#CCCN(CCC#N)c1ccc(/C=C(/NC(=O)c2cc([N+](=O)[O-])ccc2Cl)C(=O)NN)cc1		> 100 µM (inactive)	> 100 µM (inactive)	> 100 µM (inactive)	> 100 µM (inactive)	54 µM (inactive)	> 100 µM (inactive)	> 100 µM (inactive)	
Nc1ccc2ncc(Nc3ccc(F)cc3)nc2c1	> 100 µM (inactive)	> 100 µM (inactive)		> 100 µM (inactive)	94.6 µM (inactive)		> 100 µM (inactive)		
CC(=O)Oc1c(-c2ccccc2)[nH]c2cc([N+](=O)[O-])c(/C(Cl)=C/c3ccccc3)cc12	4.36 µM (inactive)	3.71 µM (inactive)	3.41 µM (inactive)	3.85 µM (inactive)	3.31 µM (inactive)	3.9 µM (inactive)			
C=CCC1C(=O)C(C(=O)OC)N2CCc3c([nH]c4ccccc34)C12 (stereo not given)		> 100 µM (inactive)	> 100 µM (inactive)		> 100 µM (inactive)	> 100 µM (inactive)			
NC(=O)C12CC3CC(CC(F)(C3)C1)C2	> 100 µM (inactive)	> 100 µM (inactive)	> 100 µM (inactive)	> 100 µM (inactive)	> 100 µM (inactive)	> 100 µM (inactive)	> 100 µM (inactive)		
C=C1C(=O)OC2/C=C(CO)/C=C\C3OC3(C)CC(OC(=O)/C(C)=C/COC(C)=O)C12 (stereo not given)	2.47 µM (inactive)	0.773 µM (active)	4.7 µM (inactive)	4.08 µM (inactive)	1.84 µM (inactive)	1.58 µM (inactive)	1.97 µM (inactive)	9.38 µM (inactive)	2.74 µM (inactive)
Clc1ccc(-c2c(C3=NCCN3)nnn2-c2ccccc2)cc1	> 100 µM (inactive)	> 100 µM (inactive)	85.3 µM (inactive)	> 100 µM (inactive)	> 100 µM (inactive)	> 100 µM (inactive)	> 100 µM (inactive)	> 100 µM (inactive)	
O=C1C=C(N2CCCC2)C=C(N2CCCC2)C1	> 100 µM (inactive)	> 100 µM (inactive)	> 100 µM (inactive)	> 100 µM (inactive)	28.1 µM (inactive)	> 100 µM (inactive)	> 100 µM (inactive)	> 100 µM (inactive)	
CC(=O)OC1C(O)C(C)OC(OC(=O)C2CCC3C(C2)OC2(CC(OC(=O)/C=C/c4ccccc4)C(C)CO2)C32CO2)C1OC1OC(C)C(O)C(O)C1O (stereo not given)	0.0504 µM (active)	0.335 µM (active)	0.0425 µM (active)	0.0352 µM (active)	0.0332 µM (active)		0.0416 µM (active)	0.113 µM (active)	
O=C(Nc1cccc2ccccc12)Oc1ccccc1C1CCCCC1		15.2 µM (inactive)	20.9 µM (inactive)	23.4 µM (inactive)	22.3 µM (inactive)	18.3 µM (inactive)	21.2 µM (inactive)	16.3 µM (inactive)	19.5 µM (inactive)
Cc1nc2c(sc(=S)n2-c2ccccc2)c2nc3ccccc3n12		> 100 µM (inactive)		> 100 µM (inactive)	> 100 µM (inactive)	> 100 µM (inactive)	> 100 µM (inactive)	> 100 µM (inactive)	> 100 µM (inactive)
C=C1C(=O)OC2C=C(C)CC3C=C(CCC=C(C)CCC12)C(=O)O3 (stereo not given)		54.5 µM (inactive)	52.7 µM (inactive)	66.4 µM (inactive)	58.3 µM (inactive)		68.1 µM (inactive)	51.3 µM (inactive)	
Cn1c(=O)c2nc(N3CCCCC3)cnc2n(C)c1=O	> 100 µM (inactive)	> 100 µM (inactive)	> 100 µM (inactive)		> 100 µM (inactive)	> 100 µM (inactive)			
